Paper PMC3306125 (Journal of Medicinal Chemistry, 2012)

What was measured:
topoisomerase II = test: KDNA decatenation assay; type: biochemical; conditions: 50 μM drug, 10 min at 37°C, gel
[1] = tested on: acetylated histones H4 and H3; test: Western blot of histone H4 and H3 acetylation in DU-145 cells; type: cell-based, human; conditions: DU-145, 24 h; SAHA 2.5, 5 μM; DAU 0.1, 0.5 μM; 7 0.5, 1 μM; 12b 2.5, 5 μM
[2] = tested on: Topo II-DNA cleavage complexes; test: Cellular Topo II inhibition; type: cell-based, human; conditions: 90 nM DAU, 130 nM 7, […] 12b; for stabilized Topo II-DNA cleavage complexes, 30 min treatment: DU-145, 30 min; for stabilized Topo II-DNA cleavage complexes, 72 hour treatment: DU-145, 72 h
acetyl tubulin = test: Western blot of tubulin acetylation in DU-145 cells; conditions: DU-145, 4 h; DAU 90, 500 nM; 7 130, 500 nM; 12b 1.31, 10 μM
HDAC 8 = target: T1, HDAC 8 (Homo sapiens, UniProt Q9BY41); test: Recombinant HDAC 8 inhibition; conditions: HDAC 8 vs HDAC 1
T1 sequence (Q9BY41 1-377): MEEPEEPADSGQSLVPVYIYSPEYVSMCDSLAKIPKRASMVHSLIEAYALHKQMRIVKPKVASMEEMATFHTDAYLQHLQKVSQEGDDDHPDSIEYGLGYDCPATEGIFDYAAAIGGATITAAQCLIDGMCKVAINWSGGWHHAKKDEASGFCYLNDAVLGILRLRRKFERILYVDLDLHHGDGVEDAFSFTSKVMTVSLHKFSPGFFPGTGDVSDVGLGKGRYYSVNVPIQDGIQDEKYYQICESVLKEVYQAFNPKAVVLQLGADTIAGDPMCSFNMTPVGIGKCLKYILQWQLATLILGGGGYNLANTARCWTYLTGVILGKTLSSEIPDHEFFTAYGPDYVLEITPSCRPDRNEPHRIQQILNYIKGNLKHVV

[3] = tested on: HeLa cell nuclear extract HDACs (HDAC 1/2); test: In vitro HDAC inhibition, HeLa nuclear extract; type: biochemical; conditions: relative to 12a
HDAC 6 = target: T2, HDAC 6 (Homo sapiens, UniProt Q9UBN7); test: Recombinant HDAC 6 inhibition; type: biochemical
T2 sequence (Q9UBN7 1-1215): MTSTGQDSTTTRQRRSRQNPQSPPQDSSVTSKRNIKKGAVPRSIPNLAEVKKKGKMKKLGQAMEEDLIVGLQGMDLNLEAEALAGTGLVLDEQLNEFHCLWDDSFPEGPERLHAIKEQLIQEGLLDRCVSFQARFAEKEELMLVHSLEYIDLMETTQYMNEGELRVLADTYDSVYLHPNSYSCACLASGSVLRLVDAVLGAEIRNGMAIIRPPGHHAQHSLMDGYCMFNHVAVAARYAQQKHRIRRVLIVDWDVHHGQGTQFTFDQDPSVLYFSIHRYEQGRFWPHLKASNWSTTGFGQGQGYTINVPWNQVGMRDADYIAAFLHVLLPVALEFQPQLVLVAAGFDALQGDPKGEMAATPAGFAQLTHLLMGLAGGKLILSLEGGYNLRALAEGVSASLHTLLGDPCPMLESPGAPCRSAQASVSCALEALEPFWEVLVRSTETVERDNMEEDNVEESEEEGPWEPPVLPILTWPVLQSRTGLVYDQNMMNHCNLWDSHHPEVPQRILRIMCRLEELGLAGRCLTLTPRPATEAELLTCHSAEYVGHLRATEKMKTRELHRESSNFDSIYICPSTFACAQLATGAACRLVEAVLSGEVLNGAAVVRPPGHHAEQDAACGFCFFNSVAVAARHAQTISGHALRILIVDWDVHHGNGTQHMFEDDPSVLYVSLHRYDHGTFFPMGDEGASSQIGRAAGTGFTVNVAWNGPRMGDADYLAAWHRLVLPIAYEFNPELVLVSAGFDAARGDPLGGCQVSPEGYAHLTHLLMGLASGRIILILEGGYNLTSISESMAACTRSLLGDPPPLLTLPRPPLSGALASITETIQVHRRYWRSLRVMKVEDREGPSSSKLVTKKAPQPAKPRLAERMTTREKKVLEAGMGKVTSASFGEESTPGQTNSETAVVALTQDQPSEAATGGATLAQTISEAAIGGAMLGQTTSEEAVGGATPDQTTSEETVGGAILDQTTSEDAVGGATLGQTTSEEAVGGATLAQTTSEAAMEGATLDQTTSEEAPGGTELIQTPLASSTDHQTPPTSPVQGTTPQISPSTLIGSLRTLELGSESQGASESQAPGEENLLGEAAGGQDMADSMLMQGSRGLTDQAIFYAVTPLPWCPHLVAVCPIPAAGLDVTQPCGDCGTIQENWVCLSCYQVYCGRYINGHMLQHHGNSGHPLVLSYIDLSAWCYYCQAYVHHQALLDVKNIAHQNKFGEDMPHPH

HDAC 1 = HDAC 1 (Homo sapiens, UniProt Q13547); test: Recombinant HDAC 1 inhibition; conditions: 12c vs 12a
Chain of HDAC 1 (Q13547 whole entry): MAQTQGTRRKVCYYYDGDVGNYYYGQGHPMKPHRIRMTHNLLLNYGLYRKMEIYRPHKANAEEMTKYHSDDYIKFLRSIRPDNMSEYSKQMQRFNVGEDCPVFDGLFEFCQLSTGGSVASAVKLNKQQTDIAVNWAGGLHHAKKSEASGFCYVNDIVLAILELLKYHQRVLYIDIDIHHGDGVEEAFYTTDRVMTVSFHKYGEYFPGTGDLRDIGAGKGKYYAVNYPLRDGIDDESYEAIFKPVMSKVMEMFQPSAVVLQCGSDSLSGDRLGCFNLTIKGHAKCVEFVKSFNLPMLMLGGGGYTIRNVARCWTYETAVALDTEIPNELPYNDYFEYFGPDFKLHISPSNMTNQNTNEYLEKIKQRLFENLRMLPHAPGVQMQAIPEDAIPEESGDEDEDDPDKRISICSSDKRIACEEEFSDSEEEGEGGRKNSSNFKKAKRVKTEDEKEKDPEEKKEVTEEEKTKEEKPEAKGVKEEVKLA

SMILES	Topo II inhibition (KDNA decatenation) (topoisomerase II)	histone H4 acetylation (immunoblot) [1]	stabilized Topo II-DNA cleavage complexes, 30 min treatment [2]	stabilized Topo II-DNA cleavage complexes, 72 hour treatment [2]	tubulin acetylation (immunoblot) (acetyl tubulin)	anti-HDAC 8 activity, fold less than anti-HDAC 1 activity (HDAC 8)	fold more potent than 12a, HeLa nuclear extract HDACs [3]	IC50 (HDAC 6) [nM]	fold activity difference between 12a and 12c, HDAC inhibitory activity (HDAC 1)
COc1cccc2c1C(=O)c1c(O)c3c(c(O)c1C2=O)C[C@@](O)(C(C)=O)C[C@@H]3O[C@H]1C[C@H](NCc2ccc(-c3cn(CCCCCC(=O)NO)nn3)cc2)[C@H](O)[C@H](C)O1 [Compound 12b, Daunorubicin-N-benzyl-4-triazolylhexahydroxamic Acid]	comparable levels to that of DAU	strong H4 acetylation	significantly higher amount	drastic drop	robust acetylation				
COc1cccc2c1C(=O)c1c(O)c3c(c(O)c1C2=O)C[C@@](O)(C(C)=O)C[C@@H]3O[C@H]1C[C@H](NCc2ccc(NC(=O)CCCCCCC(=O)NO)cc2)[C@H](O)[C@H](C)O1 [Compound 7, Daunorubicin-N-benzyl-4-amino-8-oxooctahydroxamic Acid]	comparable levels to that of DAU		indistinguishable from that of the control cells	measured increase in Topo II inhibition	moderate levels of acetylation	about 4 fold			
COc1cccc2c1C(=O)c1c(O)c3c(c(O)c1C2=O)C[C@@](O)(C(C)=O)C[C@@H]3O[C@H]1C[C@H](NCc2ccc(-c3cn(CCCCCCCC(=O)NO)nn3)cc2)[C@H](O)[C@H](C)O1 [Compound 12d, Daunorubicin-N-benzyl-4-triazolyloctahydroxamic Acid]	lower Topo II inhibition activity						about 20 fold		
COc1cccc2c1C(=O)c1c(O)c3c(c(O)c1C2=O)C[C@@](O)(C(C)=O)C[C@@H]3O[C@H]1C[C@H](NCc2ccc(-c3cn(CCCCC(=O)NO)nn3)cc2)[C@H](O)[C@H](C)O1 [Compound 12a, Daunorubicin-N-benzyl-4-triazolylpentahydroxamic Acid]	lower Topo II inhibition activity							600	
COc1cccc2c1C(=O)c1c(O)c3c(c(O)c1C2=O)C[C@@](O)(C(C)=O)C[C@@H]3O[C@H]1C[C@H](NCc2ccc(-c3cn(CCCCCCC(=O)NO)nn3)cc2)[C@H](O)[C@H](C)O1 [Compound 12c, Daunorubicin-N-benzyl-4-triazolylheptahydroxamic Acid]	near total inhibition								~ 600 fold
COc1cccc2c1C(=O)c1c(O)c3c(c(O)c1C2=O)C[C@@](O)(C(C)=O)C[C@@H]3O[C@H]1C[C@H](N)[C@H](O)[C@H](C)O1 [DAU, daunomycin, reference compound]	severe impairment of DNA decatenation		high levels	significant inhibition of Topo II activity	lowest levels of acetylation				
